# Measurements reported in patent publication US8470738B2, “Pyridazinone compound and herbicide containing the same” (Sumitomo Chemical Company, Limited, priority 2007, dated 2013).
# Legend:
# Lolium multiflorum = experiment: Post-emergence treatment test in dry field; assay type: in vivo; conditions: treatment amount 500 g/ha; foliar spray at first to second leaf stage; twenty days after treatment; 0 = no effect, 10 = complete death
# Protocol: A plastic cup with a diameter of 8 cm and a depth of 6.5 cm was filled with commercially available soil. Seeds of Lolium multiflorum were sowed in the cup, covered with soil about 0.5 cm thick and then grown in a greenhouse. When the plants were grown in the first to second leaf stage, a diluted liquid formulation containing a prescribed amount of the compound I-a-2 was sprayed onto the whole plants uniformly. The diluted liquid formulation was prepared by dissolving a prescribed amount of the compound I-a-2 in a 2% solution of Tween 20 (polyoxyethylene sorbitan fatty acid ester, MP Biomedicals, Inc.) in dimethylformamide and then diluting the solution with deionized water. After the treatment, the plants were grown in a greenhouse. Twenty days after treatment, the controlling effect of the compound on Lolium multiflorum was visually evaluated. The effect was rated in 11 levels, from 0 to 10 (0 represents “no effect”; 10 represents “complete death”; and a state of the plant therebetween is rated in levels of 1 to 9).
# The other compounds of the present invention, and Compound A described in J. Heterocycl. Chem., vol. 42, pp. 427-435 (2005) as a comparative example were similarly tested.
# Apera spica-venti = experiment: Pre-emergence treatment test in dry field; assay type: in vivo; conditions: treatment amount 500 g/ha; sprayed onto soil surface after sowing; three weeks after treatment; 0 = no effect, 10 = complete death
# Protocol: A plastic container (32 cm×22 cm×8 cm in height) was filled with soil sterilized by steam. Seeds of Apera spica-venti were sowed in the container and covered with soil about 0.5 cm thick. Then, a diluted liquid formulation containing a prescribed amount of the compound I-a-1 was sprayed onto the soil surface uniformly. The diluted liquid formulation was prepared by the method similar to that in Test example 1. After the treatment, the plants were grown in a greenhouse. Three weeks after treatment, the controlling effect of the compound on Apera spica-venti was visually evaluated. The effect was rated in 11 levels, from 0 to 10 similarly to Test example 1.
# The other compounds of the present invention and Compound A as a comparative example were similarly tested.
compound,measurement,setting,value
Cc1ccccc1-c1c(O)cnn(C)c1=O [Compound A],"controlling effect on Lolium multiflorum (visually evaluated, rated 0 to 10)",Lolium multiflorum,1
same,"controlling effect on Apera spica-venti (visually evaluated, rated 0 to 10)",Apera spica-venti,1
